This note sets out measurements from patent US20240228489A1, “POSITIVE ALLOSTERIC MODULATORS OF THE MUSCARINIC ACETYLCHOLINE RECEPTOR M1” (Vanderbilt University, priority 2021, published 2024).

Experiment [1] concerns the target T1, human mAChR M1 (Homo sapiens, UniProt P11229).
T1 sequence (P11229 1-460): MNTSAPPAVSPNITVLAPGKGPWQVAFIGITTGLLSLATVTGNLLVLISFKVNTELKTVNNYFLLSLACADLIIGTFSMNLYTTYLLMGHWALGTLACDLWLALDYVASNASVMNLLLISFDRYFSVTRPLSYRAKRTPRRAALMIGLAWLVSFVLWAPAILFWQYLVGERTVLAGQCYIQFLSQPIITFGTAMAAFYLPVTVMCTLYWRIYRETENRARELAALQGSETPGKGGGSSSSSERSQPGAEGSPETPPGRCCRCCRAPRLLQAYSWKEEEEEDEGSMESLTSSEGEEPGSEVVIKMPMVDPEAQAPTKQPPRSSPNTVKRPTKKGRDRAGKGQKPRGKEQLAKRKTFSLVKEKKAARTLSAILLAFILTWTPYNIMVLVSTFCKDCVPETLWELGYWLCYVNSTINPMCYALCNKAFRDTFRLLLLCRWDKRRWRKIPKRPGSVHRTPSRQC
In words: mAChR M1 cell-based functional assay (calcium mobilization), PAM mode: increase in the EC20 acetylcholine response. In short, it runs like this:
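CHO-K1 cells stably expressing hM1, Fluo-4 loaded, read by FDSS calcium flux at 1 Hz. Compound (11-point 1:3 CRC) added at 4 s, EC20 acetylcholine at 144 s, EC80 at 230 s. PAM activity taken as concentration-dependent increase in EC20 ACh response, fitted by four-parameter logistic for EC50/Emax.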
Background: Calcium assays in cells follow changes in intracellular calcium, usually with a dye or a luminescent sensor.

For experiment [2], the target named is T1, human mAChR M1. In words: mAChR M1 cell-based functional assay (calcium mobilization), agonist mode: compound alone, Emax relative to acetylcholine maximum. As to conditions: for EC50 / Agonist Activity Human M1 EC50: human mAChR M1; for Emax: relative to the maximum for acetylcholine; call rule not given here. Put shortly: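 CHO-K1 cells stably expressing hM1 were loaded with Fluo-4 AM, and calcium flux was read as fluorescence ratio. Compound was added alone from an 11-point 1:3 curve, and the agonist response was fitted with a four-parameter logistic. Emax is expressed relative to the acetylcholine maximum.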

Broadly, the EC50 is the concentration needed to bring the measured effect to its halfway point. One may read the Emax as the size of the effect at its maximum, as opposed to the concentration needed. On to `[2H]C1([2H])c2ncccc2C(=O)N1Cc1c(C)cc(-c2ccc(OC3CC3)c3nn(C)cc23)cc1F` [Compound 196, 6-(4-(7-cyclopropoxy-2-methyl-2H-indazol-4-yl)-2-fluoro-6-methylbenzyl)-6,7-dihydro-5H-pyrrolo[3,4-b]pyridin-5-one-7,7-d2], for which, at human mAChR M1 [1], the EC50 was determined as 437 nM and the Emax stood at 83%. Further, on human mAChR M1 [2], the EC50 amounted to 8680 nM and the Emax turned out to be 43%.
Consider `[2H]C1([2H])c2ncccc2C(=O)N1Cc1c(F)cc(-c2ccc(C)c3nn(C)cc23)cc1F` [Compound 27, 6-(4-(2,7-dimethyl-2H-indazol-4-yl)-2,6-difluorobenzyl)-6,7-dihydro-5H-pyrrolo[3,4-b]pyridin-5-one-7,7-d^2], for which, at human mAChR M1 [1], the EC50 stood at 542 nM and the Emax amounted to 84%. Further, at human mAChR M1 [2], the “Agonist Activity Human M1 EC50” value is listed as “Inactive” and the Emax is 4%.
Turning to `[2H]C1([2H])c2ncccc2C(=O)N1Cc1c(F)cc(-c2ccc(OCCOC)c3nn(C)cc23)cc1C1CC1` [Compound 203, 6-(2-cyclopropyl-6-fluoro-4-(7-(2-methoxyethoxy)-2-methyl-2H-indazol-4-yl)benzyl)-6,7-dihydro-5H-pyrrolo[3,4-b]pyridin-5-one-7,7-d2], on human mAChR M1 [1], the half-maximal effective concentration (EC50) was determined as 815 nM and the Emax was 75%. Besides, on human mAChR M1 [2], the EC50 came out at 2560 nM and the Emax was found to be 63%.
In the case of `[2H]C1([2H])c2ncccc2C(=O)N1Cc1ccc(-c2ccc3c(cnn3C)c2)cc1F` [Compound 10, 6-(2-fluoro-4-(1-methyl-1H-indazol-5-yl)benzyl)-6,7-dihydro-5H-pyrrolo[3,4-b]pyridin-5-one-7,7-d2], on human mAChR M1 [1], the EC50 was determined as 1460 nM and the Emax was determined as 62%. Moreover, at human mAChR M1 [2], the “Agonist Activity Human M1 EC50” value is recorded as “Inactive” and the Emax is 4%.
Take `[2H]C1([2H])c2ncccc2C(=O)N1Cc1ccc(-c2ccc3nn(C)cc3c2)cc1C` [Compound 33, 6-(2-methyl-4-(2-methyl-2H-indazol-5-yl)benzyl)-6,7-dihydro-5H-pyrrolo[3,4-b]pyridin-5-one-7,7-d2]: the EC50 on human mAChR M1 [1] is 392 nM; on human mAChR M1 [2], greater than 10000 nM. Also, the Emax was found to be 72% on human mAChR M1 [1] and 2% on human mAChR M1 [2].
On to `[2H]C1([2H])c2ncccc2C(=O)N1Cc1c(F)cc(-c2ccc(O[C@@H]3CCOC3)c3nn(C)cc23)cc1F` [Compound 137, (R)-6-(2,6-difluoro-4-(2-methyl-7-((tetrahydrofuran-3-yl)oxy)-2H-indazol-4-yl)benzyl)-6,7-dihydro-5H-pyrrolo[3,4-b]pyridin-5-one-7,7-d2], for which the EC50 at human mAChR M1 [1] was found to be 256 nM; at human mAChR M1 [2] it was 7920 nM. Besides, the Emax was determined as 74% on human mAChR M1 [1] and 53% at human mAChR M1 [2].
The corresponding values for `[2H]C1([2H])c2ncccc2C(=O)N1Cc1c(C)cc(-c2ccc(C)c3nn(C)cc23)cc1F` [Compound 197, 6-(4-(2,7-dimethyl-2H-indazol-4-yl)-2-fluoro-6-methylbenzyl)-6,7-dihydro-5H-pyrrolo[3,4-b]pyridin-5-one-7,7-d2] are 433 nM, no less than 10000 nM, 85% and 37%.
`[2H]C1([2H])c2ncccc2C(=O)N1Cc1ccc(-c2cnc3nn(C)cc3c2)cc1C` [Compound 34, 6-(2-methyl-4-(2-methyl-2H-pyrazolo[3,4-b]pyridin-5-yl)benzyl)-6,7-dihydro-5H-pyrrolo[3,4-b]pyridin-5-one-7,7-d2]: on human mAChR M1 [1], the EC50 came to 2000 nM and the Emax turned out to be 82%. Also, at human mAChR M1 [2], the EC50 is greater than 10000 nM and the Emax was determined as 3%.
The corresponding values for `[2H]C1([2H])c2ncccc2C(=O)N1Cc1c(F)cc(-c2ccnc3nn(C)cc23)cc1F` [Compound 2, 6-(2,6-difluoro-4-(2-methyl-2H-pyrazolo[3,4-b]pyridin-4-yl)benzyl)-6,7-dihydro-5H-pyrrolo[3,4-b]pyridin-5-one-7,7-d2] are 980 nM, 57%, 7700 nM and 34%.
In the case of `[2H]C1([2H])c2ncccc2C(=O)N1Cc1c(F)cc(-c2ccc(OCCN(C)C)c3nn(C)cc23)cc1F` [Compound 131, 6-(4-(7-(2-(dimethylamino)ethoxy)-2-methyl-2H-indazol-4-yl)-2,6-difluorobenzyl)-6,7-dihydro-5H-pyrrolo[3,4-b]pyridin-5-one-7,7-d2], at human mAChR M1 [1], the EC50 worked out at 381 nM and the Emax was 80%. Moreover, on human mAChR M1 [2], the “Agonist Activity Human M1 EC50” value was “Inactive” and the Emax worked out at 5%.
As for `[2H]C1([2H])c2ncccc2C(=O)N1Cc1c(F)cc(-c2ccc(OCCOC)c3nn(C)cc23)cc1F` [Compound 113, 6-(2,6-difluoro-4-(7-(2-methoxyethoxy)-2-methyl-2H-indazol-4-yl)benzyl)-6,7-dihydro-5H-pyrrolo[3,4-b]pyridin-5-one-7,7-d2], at human mAChR M1 [1], the EC50 was determined as 188 nM and the Emax amounted to 75%. For the same compound, at human mAChR M1 [2], the EC50 was determined as 5870 nM and the Emax is 41%.
The corresponding values for `[2H]C1([2H])c2ncccc2C(=O)N1Cc1ccc(-c2ccc(OCCOC)c3nn(C([2H])([2H])[2H])cc23)cc1F` [Compound 117, 6-(2-fluoro-4-(7-(2-methoxyethoxy)-2-(methyl-d3)-2H-indazol-4-yl)benzyl)-6,7-dihydro-5H-pyrrolo[3,4-b]pyridin-5-one-7,7-d2] are 317 nM, 70%, no less than 10000 nM and 21%.
In the case of `[2H]C1([2H])c2ncccc2C(=O)N1Cc1c(F)cc(-c2ccc(C)c3nn(C)cc23)cc1C1CC1` [Compound 204, 6-(2-cyclopropyl-4-(2,7-dimethyl-2H-indazol-4-yl)-6-fluorobenzyl)-6,7-dihydro-5H-pyrrolo[3,4-b]pyridin-5-one-7,7-d2], on human mAChR M1 [1], the EC50 was found to be 293 nM and the Emax came out at 70%. At human mAChR M1 [2], the EC50 was 7450 nM and the Emax was determined as 49%.
With `[2H]C1([2H])c2ncccc2C(=O)N1Cc1c(F)cc(-c2cc3cn(C)nc3cc2F)cc1F` [Compound 4, 6-(2,6-difluoro-4-(6-fluoro-2-methyl-2H-indazol-5-yl)benzyl)-6,7-dihydro-5H-pyrrolo[3,4-b]pyridin-5-one-7,7-d2], on human mAChR M1 [1], the EC50 is 1060 nM and the Emax was 48%. On human mAChR M1 [2], the “Agonist Activity Human M1 EC50” value is listed as “Inactive” and the Emax turned out to be 2%.
Regarding `[2H]C1([2H])c2ncccc2C(=O)N1Cc1c(F)cc(-c2ccc(OC3COC3)c3nn(C)cc23)cc1F` [Compound 139, 6-(2,6-difluoro-4-(2-methyl-7-(oxetan-3-yloxy)-2H-indazol-4-yl)benzyl)-6,7-dihydro-5H-pyrrolo[3,4-b]pyridin-5-one-7,7-d2], on human mAChR M1 [1], the EC50 was 188 nM and the Emax is 75%. At human mAChR M1 [2], the EC50 came out at 5040 nM and the Emax is 36%.
Take `[2H]C1([2H])c2ncccc2C(=O)N1Cc1ccc(-c2ccc(OCC3(C#N)CC3)c3nn(C)cc23)cc1F` [Compound 178, 1-(((4-(3-fluoro-4-((5-oxo-5,7-dihydro-6H-pyrrolo[3,4-b]pyridin-6-yl-7,7-d2)methyl)phenyl)-2-methyl-2H-indazol-7-yl)oxy)methyl)cyclopropane-1-carbonitrile]: at human mAChR M1 [1], the EC50 is 277 nM and the Emax came to 79%. For the same compound, on human mAChR M1 [2], the “Agonist Activity Human M1 EC50” value was “Inactive” and the Emax came out at 9%.
The corresponding values for `[2H]C1([2H])c2ncccc2C(=O)N1Cc1ccc(-c2ccc(C)c3nn(C([2H])([2H])[2H])cc23)cc1C` [Compound 58, 6-(2-methyl-4-(7-methyl-2-(methyl-d3)-2H-indazol-4-yl)benzyl)-6,7-dihydro-5H-pyrrolo[3,4-b]pyridin-5-one-7,7-d2] are 614 nM, 83%, “Inactive” and 4%.
Turning to `[2H]C1([2H])c2ncccc2C(=O)N1Cc1c(F)cc(-c2cccc3nn(CF)cc23)cc1F` [Compound 44, 6-(2,6-difluoro-4-(2-(fluoromethyl)-2H-indazol-4-yl)benzyl)-6,7-dihydro-5H-pyrrolo[3,4-b]pyridin-5-one-7,7-d2], the EC50 at human mAChR M1 [1] was 413 nM; on human mAChR M1 [2], greater than 10000 nM. The Emax on human mAChR M1 [1] amounted to 78%; on human mAChR M1 [2], 28%.
As to `[2H]C1([2H])c2ncccc2C(=O)N1Cc1ccc(-c2ccnc3nn(C)cc23)cc1F` [Compound 22, 6-(2-fluoro-4-(2-methyl-2H-pyrazolo[3,4-b]pyridin-4-yl)benzyl)-6,7-dihydro-5H-pyrrolo[3,4-b]pyridin-5-one-7,7-d2], on human mAChR M1 [1], the EC50 was determined as 1940 nM and the Emax was determined as 74%. In addition, on human mAChR M1 [2], the “Agonist Activity Human M1 EC50” value was “Inactive” and the Emax was found to be 6%.
Consider `[2H]C1([2H])c2ncccc2C(=O)N1Cc1ccc(-c2cccc3ccnn23)cc1` [Compound 241, 6-(4-(pyrazolo[1,5-a]pyridin-7-yl)benzyl)-6,7-dihydro-5H-pyrrolo[3,4-b]pyridin-5-one-7,7-d2], for which, at human mAChR M1 [1], the EC50 was greater than 10000 nM and the Emax amounted to 41%. On human mAChR M1 [2], the “Agonist Activity Human M1 EC50” value is reported as “Inactive” and the Emax was 3%.
